Converted amounts (≈) assume the structure as drawn. The source made the active and inactive calls. The calls are words filed in the database; no cut-off is given here.
Assays:
[1] = test system: Staphylococcus aureus; assay: Antibacterial activity against Staphylococcus aureus NCIMB 12702 after 24 hrs by serial dilution method; type: functional; conditions: Staphylococcus aureus, NCIMB 12702, 24 h
[2] = test system: Escherichia coli; assay: Antibacterial activity against Escherichia coli NCIMB 9485 after 24 hrs by serial dilution method; type: functional; conditions: NCIMB 9485, 24 h
[3] = test system: Pseudomonas aeruginosa; assay: Antibacterial activity against Pseudomonas aeruginosa ATCC 10145 after 24 hrs by serial dilution method; type: functional, organism-based
[4] = Toxicity in sixth development stage of Galleria mellonella larvae assessed as survival rate at 10 ug/ml after 24 hrs; type: organism-based; conditions: in vivo
[5] = Toxicity in sixth development stage of Galleria mellonella larvae assessed as survival rate at 50 ug/ml after 48 hrs; type: organism-based; conditions: in vivo
[6] = Toxicity in sixth development stage of Galleria mellonella larvae assessed as survival rate at 1000 ug/ml after 48 hrs; type: organism-based; conditions: in vivo
[7] = Toxicity in sixth development stage of Galleria mellonella larvae assessed as survival rate at 10 ug/ml after 72 hrs; type: organism-based; conditions: in vivo
[8] = Toxicity in sixth development stage of Galleria mellonella larvae assessed as survival rate at 1 ug/ml after 48 hrs; type: organism-based; conditions: in vivo
[9] = Toxicity in sixth development stage of Galleria mellonella larvae assessed as survival rate at 100 ug/ml after 24 hrs; type: organism-based; conditions: in vivo
[10] = Toxicity in sixth development stage of Galleria mellonella larvae assessed as survival rate at 10 ug/ml after 48 hrs; type: organism-based; conditions: in vivo
[11] = test system: Galleria mellonella; assay: Toxicity in sixth development stage of Galleria mellonella larvae assessed as larvae pupation at 1 to 1000 ug/ml after 7 days relative to control; type: organism-based; conditions: in vivo, 168 h
[12] = Toxicity in sixth development stage of Galleria mellonella larvae assessed as survival rate at 50 ug/ml after 24 hrs; type: organism-based; conditions: in vivo
[13] = Toxicity in sixth development stage of Galleria mellonella larvae assessed as survival rate at 1 ug/ml after 72 hrs; type: organism-based; conditions: in vivo
[14] = Toxicity in sixth development stage of Galleria mellonella larvae assessed as survival rate at 100 ug/ml after 48 hrs; type: organism-based; conditions: in vivo
[15] = Toxicity in sixth development stage of Galleria mellonella larvae assessed as survival rate at 50 ug/ml after 72 hrs; type: organism-based; conditions: in vivo
[16] = Toxicity in sixth development stage of Galleria mellonella larvae assessed as survival rate at 1000 ug/ml after 24 hrs; type: organism-based; conditions: in vivo
[17] = Toxicity in sixth development stage of Galleria mellonella larvae assessed as survival rate at 1000 ug/ml after 72 hrs; type: organism-based; conditions: in vivo
[18] = Toxicity in sixth development stage of Galleria mellonella larvae assessed as survival rate at 1 ug/ml after 24 hrs; type: organism-based; conditions: in vivo
[19] = Toxicity in sixth development stage of Galleria mellonella larvae assessed as survival rate at 100 ug/ml after 72 hrs; type: organism-based; conditions: in vivo
[20] = test system: Staphylococcus aureus; assay: Antibacterial activity against methicillin-resistant Staphylococcus aureus after 24 hrs by serial dilution method; type: functional

Compound | MIC90 [1] [µM] | MIC90 [2] [µM] | MIC [3] | survival at 24 h [4] [%] | MIC50 [1] [µM] | MIC80 [1] [µM] | MIC50 [2] [µM] | MIC80 [2] [µM] | survival at 48 h [5] [%] | survival at 48 h [6] [%] | survival at 72 h [7] [%] | survival at 48 h [8] [%] | survival at 24 h [9] [%] | survival at 48 h [10] [%] | Activity [11] | survival at 24 h [12] [%] | survival at 72 h [13] [%] | survival at 48 h [14] [%] | survival at 72 h [15] [%] | survival at 24 h [16] [%] | other results
CCC1CN2CCC1CC2[C@@H](Oc1cc2ccccc2c2ccccc12)c1ccnc2ccc(OC)cc12 (some centres not stated) | > 200 | > 200 | inactive | – | – | – | – | – | – | – | – | – | – | – | – | – | – | – | – | – | –
CCC1CN2CCC1C[C@@H]2[C@@H](Oc1nnc(O[C@@H](c2ccnc3ccc(OC)cc23)[C@H]2CC3CCN2CC3CC)c2ccccc12)c1ccnc2ccc(OC)cc12 (some centres not stated) | 189 (≈ 147 µg/mL) | > 200 | inactive | – | – | – | – | – | – | – | – | – | – | – | – | – | – | – | – | – | –
FC(F)(F)c1cc(NC(=S)Nc2ccccc2)cc(C(F)(F)F)c1 | > 275 | 206 (≈ 75.1 µg/mL) | inactive | 100 | > 275 | > 275 | 51.5 (≈ 18.8 µg/mL) | 103 (≈ 37.5 µg/mL) | 100 | 100 | 100 | 100 | 100 | 100 | Non-toxic | 100 | 100 | 100 | 100 | 100 | survival at 72 h [17]: 100%; survival at 24 h [18]: 100%; survival at 72 h [19]: 100%
C=C[C@H]1CN2CC[C@H]1C[C@H]2[C@@H](NC(=S)Nc1cc(C(F)(F)F)cc(C(F)(F)F)c1)c1ccnc2ccc(OC)cc12 | 10.5 (≈ 6.26 µg/mL) | 7.9 (≈ 4.7 µg/mL) | inactive | 100 | 3.95 (≈ 2.35 µg/mL) | 7.9 (≈ 4.7 µg/mL) | 2.63 (≈ 1.56 µg/mL) | 5.26 (≈ 3.13 µg/mL) | 100 | 100 | 100 | 97 | 100 | 100 | Non-toxic | 100 | 97 | 100 | 100 | 100 | MIC50 [20]: 11.4 µM (≈ 6.8 µg/mL); MIC90 [20]: 17.7 µM (≈ 10.5 µg/mL); survival at 72 h [17]: 100%; survival at 24 h [18]: 100%; survival at 72 h [19]: 100%
CCC1CN2CCC1C[C@@H]2[C@@H](Oc1nc(-c2ccccc2)nc(O[C@@H](c2ccnc3ccc(OC)cc23)[C@H]2CC3CCN2CC3CC)c1-c1ccccc1)c1ccnc2ccc(OC)cc12 (some centres not stated) | > 200 | > 200 | inactive | – | – | – | – | – | – | – | – | – | – | – | – | – | – | – | – | – | –

From ChEMBL document CHEMBL3745710, “Synthesis, antibacterial and anti-MRSA activity, in vivo toxicity and a structure-activity relationship study of a quinoline thiourea” (Bioorg Med Chem Lett, 2016)
